In the supplement of paper PMC10307832:

What was measured:
Test in all cases: relative viability (nuclei count vs DMSO), 5 days (fraction); higher = more cells survive
[1] = compound: C1/C(=C\C2=CC=CS2)/C(=O)/C(=C/C3=CC=CS3)/C1 + N=C(N)NC(=N)NCCc1ccccc1 [Phenformin] (partner 250 µM)
How it was run: (§1)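 Lung cancer cell lines, seeded in 1536-well plates, were treated the following day by pin tool with a single drug or with five library-drug doses (not always all listed) in √10 steps on top of a fixed anchor-drug dose. Cells were fixed and nuclei stained in one step after 5 days, and nuclei were counted. Relative viability is the nuclei count for treated wells divided by that for vehicle wells, reported as medians of duplicate plates.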

[2] = compound: C1=CC(=CC=C1C2=CC(=C(S2)NC(=O)N)C(=O)N)F [TPCA-1] + CCNC(=O)c1noc(-c2cc(C(C)C)c(O)cc2O)c1-c1ccc(CN2CCOCC2)cc1 [Luminespib] (partner 0.01 µM)
How it was run: as §1

[3] = compound: C1=CC(=CC=C1C2=CC(=C(S2)NC(=O)N)C(=O)N)F [TPCA-1] + C[C@@H](Oc1cc(-c2cnn(C3CCNCC3)c2)cnc1N)c1c(Cl)ccc(F)c1Cl [Crizotinib] (partner 1 µM)
How it was run: as §1

[4] = compound: C[C@]12O[C@H](C[C@]1(O)CO)n1c3ccccc3c3c4c(c5c6ccccc6n2c5c31)CNC4=O [Lestaurtinib] + CS(=O)(=O)CCNCc1ccc(-c2ccc3ncnc(Nc4ccc(OCc5cccc(F)c5)c(Cl)c4)c3c2)o1 [Lapatinib] (partner 2 µM)
How it was run: as §1

| Cell Line | relative viability ([1]; first compound 0.2 µM) | relative viability ([1]; first compound 0.6325 µM) | relative viability ([1]; first compound 2 µM) | relative viability ([1]; first compound 20 µM) | relative viability ([2]; first compound 0.04 µM) | relative viability ([2]; first compound 0.1265 µM) | relative viability ([2]; first compound 0.4 µM) | relative viability ([2]; first compound 1.265 µM) | relative viability ([2]; first compound 4 µM) | relative viability ([3]; first compound 0.04 µM) | relative viability ([3]; first compound 0.1265 µM) | relative viability ([3]; first compound 0.4 µM) | relative viability ([3]; first compound 1.265 µM) | relative viability ([3]; first compound 4 µM) | relative viability ([4]; first compound 0.005 µM) | relative viability ([4]; first compound 0.01581 µM) | relative viability ([4]; first compound 0.05 µM) | relative viability ([4]; first compound 0.1581 µM) | relative viability ([4]; first compound 0.5 µM) | relative viability ([1]; first compound 6.325 µM) |
| --- | --- | --- | --- | --- | --- | --- | --- | --- | --- | --- | --- | --- | --- | --- | --- | --- | --- | --- | --- | --- |
| NCI-H2347 | 0.362 | 0.592 | 0.283 | 0.49 | 0.694 | 0.33 | 0.344 | 0.453 | 0.242 | 0.806 | 0.557 | 0.676 | 0.553 | 0.521 | 0.938 | 0.968 | 0.871 | 0.65 | 0.613 | – |
| NCI-H2405 | 0.404 | 0.386 | 0.441 | 0.402 | 0.792 | 0.627 | 0.709 | 0.622 | 0.618 | 0.908 | 0.773 | 0.797 | 0.547 | 0.905 | 1.06 | 1.14 | 1.02 | 0.927 | 0.428 | 0.413 |
| NCI-H3122 | 0.442 | 0.377 | 0.41 | 0.333 | 0.106 | 0.0887 | 0.0804 | 0.0762 | 0.0832 | 0.281 | 0.268 | 0.278 | 0.291 | 0.223 | 1.07 | 1.05 | 1.02 | 0.98 | 0.414 | 0.307 |
| PC-3 [JPC-3] | 0.494 | 0.495 | 0.452 | 0.458 | 0.5 | 0.639 | 0.682 | 0.675 | 0.569 | 0.982 | 0.943 | 1.07 | 0.962 | 0.819 | 0.425 | 0.498 | 0.456 | 0.414 | 0.335 | 0.423 |
| PC-14 | 0.823 | 0.762 | 0.611 | 0.631 | 0.133 | 0.165 | 0.177 | 0.146 | 0.143 | 0.818 | 0.864 | 0.891 | 0.832 | 0.615 | 0.437 | 0.378 | 0.325 | 0.286 | 0.31 | 0.539 |
| RERF-LC-KJ | 0.407 | 0.461 | 0.474 | 0.432 | 1.3 | 1.25 | 1.26 | 1.14 | 0.852 | 0.875 | 0.815 | 0.835 | 0.792 | 0.758 | 0.868 | 0.839 | 0.731 | 0.758 | 0.704 | 0.432 |
| SK-LU-1 | 0.634 | 0.56 | 0.672 | 0.486 | 0.232 | 0.203 | 0.212 | 0.206 | 0.215 | 0.862 | 0.667 | 1.07 | 0.675 | 0.556 | 0.732 | 0.805 | 0.473 | 0.402 | 0.2 | 0.473 |
| SK-MES-1 | 0.722 | 0.742 | 0.605 | 0.546 | 0.876 | 0.763 | 0.677 | 0.33 | 0.365 | 1 | 0.907 | 0.923 | 0.948 | 0.589 | 0.529 | 0.453 | 0.374 | 0.324 | 0.285 | 0.644 |
| SW 1573 | 0.397 | 0.412 | 0.355 | 0.398 | 0.186 | 0.181 | 0.217 | 0.204 | 0.188 | 0.881 | 0.754 | 0.728 | 0.673 | 0.622 | 1.33 | 1.16 | 1.02 | 0.767 | 0.738 | 0.363 |
